The values that follow come from PubChem BioAssay (NCI).

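Step 1: Grow cells in 96-well plates. Step 2: Expose to compound for 48 hours at 5 concentrations. Step 3: Interpolate endpoints linearly; if unreached, use highest concentration. Definition used: TGI = concentration required for complete inhibition of growth.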

Common to all, as to assay: NCI-60 cell line screen, 48 h
Assay [1] concerns ACHN renal.
For assay [2], the system named is UO-31 renal.
The test system of assay [3] is SW-620 colon.
Assay [4] deals with NCI-H460 lung.
The test system of assay [5] is OVCAR-5 ovarian.
The test system of assay [6] is NCI/ADR-RES ovarian.
Assay [7] has as its system DU-145 prostate.
Assay [8] has as its system UACC-62 melanoma.
The subject of assay [9] is SF-539 CNS.
In assay [10] the test system is MCF7 breast.
In assay [11] the test system is M14 melanoma.
Assay [12] has as its system U251 CNS.
The subject of assay [13] is SF-268 CNS.
Assay [14] concerns T-47D breast.
In assay [15] the test system is A498 renal.
The test system of assay [16] is NCI-H522 lung.
For assay [17], the system named is SR leukemia.
The subject of assay [18] is SNB-19 CNS.
The test system of assay [19] is SN12C renal.
In assay [20] the test system is NCI-H226 lung.

As for `O=S(=O)(O)ON=C1c2ccccc2-c2ccccc21`, the TGI in assay [1], in [2], in [3], in [4], in assay [5] and in assay [6] was greater than 100 µM each time. For the same compound, the TGI in assay [7], in assay [8], in assay [9], in assay [10], in assay [11] and in [12] was greater than 100 µM in each case. For the same compound, the TGI in [13], in assay [14], in assay [15], in assay [16], in [17] and in assay [18] was greater than 100 µM in each case. Moreover, the TGI in assay [19] and in assay [20] was greater than 100 µM in each case.
As for `CC(=O)N(O)[C@@H]1CC[C@H](n2cnc3c(N)ncnc32)C1`, the TGI in assay [1], in [2], in [3], in assay [4], in assay [5] and in assay [6] was greater than 100 µM each time. The TGI in [7], in [8], in assay [9], in assay [10], in assay [11] and in assay [12] was greater than 100 µM throughout. Further, the TGI in assay [13], in [14], in [15], in assay [16], in [17] and in assay [18] was greater than 100 µM throughout. For the same compound, the TGI in assay [19] and in assay [20] was greater than 100 µM throughout.
Consider `c1csc(-c2cc(-c3cccs3)c(-c3cccs3)s2)c1`, for which the TGI in assay [1], in [2], in assay [3], in assay [4], in assay [5] and in assay [6] was greater than 100 µM each time. In addition, the TGI is greater than 100 µM in [7]; greater than 100 µM in assay [8]; greater than 100 µM in assay [9]; 66.8 µM in [10]; greater than 100 µM in assay [11]; greater than 100 µM in assay [12]. The TGI in assay [13] was greater than 100 µM; in [14], 77 µM; in assay [15], greater than 100 µM; in assay [16] it was greater than 100 µM; in assay [17], greater than 100 µM; in [18], greater than 100 µM. The TGI in assay [19] and in assay [20] was greater than 100 µM in each case.
On to `Nc1nc(Cl)cc(NCCC2(CO)CCC2)n1`, for which the TGI in assay [1], in assay [2], in assay [3], in [4], in [5] and in [6] was greater than 100 µM throughout. In addition, the TGI in assay [7], in [8], in assay [9], in assay [10], in assay [11] and in [12] was greater than 100 µM throughout. Also, the TGI in [13], in assay [14], in assay [15], in assay [16], in assay [17] and in [18] was greater than 100 µM in each case. Moreover, the TGI in [19] and in [20] was greater than 100 µM throughout.
Turning to `CCOC(=O)c1c(N2CCCC2)[nH]c(=O)c(C(c2ccco2)c2c(O)c(C(=O)OCC)c(N3CCCC3)[nH]c2=O)c1O`, the TGI in assay [1], in assay [2], in assay [3], in [4], in assay [5] and in assay [6] was greater than 100 µM throughout. Further, the TGI in assay [7], in [8], in assay [9], in assay [10], in assay [11] and in [12] was greater than 100 µM each time. The TGI in assay [13], in [14], in assay [15], in [16], in assay [17] and in [18] was greater than 100 µM each time. Besides, the TGI in assay [19] and in assay [20] was greater than 100 µM in each case.
Regarding `Cc1occc1C(=S)Nc1ccc(Cl)c(C(=O)OC(C)C2CC2)c1` (stereo not given), the TGI is 42 µM in assay [1]; 30.5 µM in assay [2]; greater than 100 µM in assay [3]; greater than 100 µM in [4]; 61.2 µM in [5]; 65.1 µM in [6]. Further, the TGI in assay [7] was greater than 100 µM; in [8] it was 71.1 µM; in assay [9], 71.6 µM; in [10] it was 57.3 µM; in assay [11] it was 53.4 µM; in [12], 70.5 µM. The TGI is 59.3 µM in assay [13]; greater than 100 µM in [14]; 48.2 µM in assay [15]; 32.9 µM in assay [16]; 68.2 µM in [17]; 39 µM in [18]. Besides, the results for the TGI in assay [19] and in assay [20] were 41.6 µM and 33.6 µM, respectively.
As for `Brc1ccc2c([C@H]3CN[C@@H](c4c[nH]c5cc(Br)ccc45)CN3)c[nH]c2c1`, the TGI in assay [1] is 9.87 µM; in [2] it was 13.8 µM; in assay [3], 3.28 µM; in [4], 4.15 µM; in [5], 10.5 µM; in [6], 17.1 µM. Moreover, the TGI is 9.98 µM in assay [7]; 23.2 µM in [8]; 7.46 µM in assay [9]; 4 µM in assay [10]; 5.91 µM in assay [11]; 4.19 µM in assay [12]. Moreover, the TGI in assay [13] amounted to 20.4 µM; in assay [14], 12.8 µM; in [15] it was 3.6 µM; in assay [16], 3.15 µM; in assay [17] it was 6.77 µM; in [18] it was 21.8 µM. The TGI in assay [19] stood at 12.4 µM; in assay [20], 20.8 µM.
